The NIST ThermoML archive (doi:10.1021/je100832h)

Settings: Liquid; for mass density: 101.32 kPa, Vibrating tube method

CCCCCCC [heptane]
Settings | mass density [kg/m3]
291.15 K | 685.28
298.15 K | 679.48
318.15 K | 662.06
328.15 K | 653.6

Ebulliometric method (Recirculating still)
Settings | vapor or sublimation pressure [kPa]
305.26 K | 8.32
310.22 K | 10.55
314.93 K | 13.09
316.5 K | 14.07
319.71 K | 16.19
323.62 K | 19.1
326.44 K | 21.45
329.04 K | 23.79
331.48 K | 26.14
333.21 K | 27.97
335.5 K | 30.51
337.48 K | 32.84
339.56 K | 35.53
341.35 K | 37.87
342.96 K | 40.12
344.47 K | 42.35
346.04 K | 44.75
347.28 K | 46.71
348.72 K | 49.09
350.12 K | 51.49
351.21 K | 53.41
352.49 K | 55.76
353.62 K | 57.88
354.79 K | 60.18
356.25 K | 63.11
357.84 K | 66.42
358.68 K | 68.27
359.98 K | 71.15
361.33 K | 74.25
362.3 K | 76.55
363.32 K | 79
364.24 K | 81.28
365.32 K | 84.05
366.2 K | 86.3
366.87 K | 88.1
367.97 K | 91.09
368.83 K | 93.46
369.84 K | 96.33
370.85 K | 98.98
371.11 K | 100
371.35 K | 100.68
371.56 K | 101.32
372.42 K | 103.92
373.25 K | 106.48
373.98 K | 108.71
374.93 K | 111.77
375.41 K | 113.35
376.29 K | 116.21
377.17 K | 119.14
377.51 K | 120.32
378.49 K | 123.7
379.37 K | 126.8
380.26 K | 130
380.83 K | 132.04
392.89 K | 182.39
393.79 K | 186.6
394.43 K | 189.67
395.1 K | 192.97
395.73 K | 196.04
396.09 K | 197.85
396.5 K | 199.97

CCCCCCCCC [nonane]
Settings | mass density [kg/m3]
291.15 K | 719.2
298.15 K | 713.85
318.15 K | 698.09
328.15 K | 690.4

Ebulliometric method (Recirculating still)
Settings | vapor or sublimation pressure [kPa]
365.3 K | 15.58
369.25 K | 18.07
372.81 K | 20.58
376.46 K | 23.49
379.71 K | 26.35
382.25 K | 28.78
384.65 K | 31.22
387.02 K | 33.8
389.45 K | 36.62
391.8 K | 39.52
393.48 K | 41.74
395.26 K | 44.15
396.96 K | 46.56
398.71 K | 49.15
400.61 K | 52.12
402.01 K | 54.42
403.31 K | 56.55
404.73 K | 59.01
406.27 K | 61.77
407.78 K | 64.58
408.93 K | 66.76
410.11 K | 69.09
411.32 K | 71.53
412.52 K | 74.01
413.68 K | 76.48
414.83 K | 79.03
415.9 K | 81.41
417.22 K | 84.44
418.24 K | 86.85
419.28 K | 89.41
420.5 K | 92.43
421.62 K | 95.25
422.83 K | 98.4
423.2 K | 99.35
423.61 K | 100.44
423.94 K | 101.32
424.92 K | 104
425.83 K | 106.5
426.71 K | 108.99
427.6 K | 111.54
428.4 K | 113.88
429.26 K | 116.44
430.22 K | 119.35
431.09 K | 122.04
432.04 K | 124.99
432.94 K | 127.82
433.74 K | 130.52
434.68 K | 133.6
435.58 K | 136.62
436.31 K | 139.12
437.11 K | 141.9
437.95 K | 144.81
438.67 K | 147.42
439.45 K | 150.23
440.11 K | 152.67
440.76 K | 155.08
441.41 K | 157.53
442.05 K | 159.98
442.77 K | 162.8
443.49 K | 165.61
444.23 K | 168.53
444.93 K | 171.39
445.49 K | 173.63
446.19 K | 176.52
446.75 K | 178.85
447.44 K | 181.82
448.07 K | 184.55
448.61 K | 186.86
449.27 K | 189.75
449.81 K | 192
450.56 K | 195.54

CCCCCC [hexane]
Settings | mass density [kg/m3]
291.15 K | 661.17
298.15 K | 654.9
318.15 K | 636.5
328.15 K | 627

Ebulliometric method (Recirculating still)
Settings | vapor or sublimation pressure [kPa]
292.98 K | 15.88
296.27 K | 18.39
298.95 K | 20.69
302.2 K | 23.81
304.49 K | 26.19
306.76 K | 28.77
308.28 K | 30.68
310.14 K | 32.97
311.96 K | 35.53
313.7 K | 37.95
315.07 K | 40.1
316.51 K | 42.3
317.91 K | 44.59
319.58 K | 47.35
320.83 K | 49.63
322.02 K | 51.87
323.45 K | 54.51
324.35 K | 56.42
325.74 K | 59.15
327.09 K | 62.05
327.99 K | 64.02
329.13 K | 66.61
330.14 K | 68.93
330.93 K | 70.86
331.87 K | 73.11
332.87 K | 75.62
333.77 K | 78.04
334.61 K | 80.11
335.65 K | 82.94
336.53 K | 85.4
337.38 K | 87.73
338.26 K | 90.28
339.25 K | 93.18
340.1 K | 95.79
340.92 K | 98.28
341.17 K | 99.08
341.6 K | 100.39
341.88 K | 101.32
342.34 K | 102.83
343.01 K | 104.95
343.62 K | 106.98
344.52 K | 110.01
344.69 K | 110.65
345.43 K | 113.16
346.05 K | 115.31
346.66 K | 117.46
347.36 K | 119.99
348.05 K | 122.52
348.44 K | 124.01
349.04 K | 126.23
349.61 K | 128.44
349.82 K | 129.32
350.34 K | 131.23
350.82 K | 133.07
351.42 K | 135.49
351.93 K | 137.54
352.53 K | 139.99
352.83 K | 141.31
353.22 K | 142.8
353.87 K | 145.75
354.23 K | 147.04
354.71 K | 149.34
355.4 K | 152.14
355.66 K | 153.31
356.04 K | 155.14
356.52 K | 157.29
357.01 K | 159.38
357.38 K | 161.05
357.8 K | 162.94
358.47 K | 166.02
358.88 K | 167.98
359.18 K | 169.31
359.69 K | 171.84
359.9 K | 172.89
360.51 K | 175.78
360.8 K | 177.31
361.09 K | 178.67
361.54 K | 180.95
361.86 K | 182.61
362.43 K | 185.32
362.68 K | 186.64
362.98 K | 188.2
363.52 K | 191.05
363.95 K | 193.35

CCCCCCCC [octane]
Settings | mass density [kg/m3]
291.15 K | 704.13
298.15 K | 698.6
318.15 K | 682.16
328.15 K | 674.15

Ebulliometric method (Recirculating still)
Settings | vapor or sublimation pressure [kPa]
350.64 K | 21.09
353.05 K | 23.14
355.76 K | 25.56
356.97 K | 26.7
358.82 K | 28.55
361.59 K | 31.58
363.86 K | 34.16
365.82 K | 36.53
367.65 K | 38.88
369.09 K | 40.82
370.77 K | 43.19
372.39 K | 45.57
374.01 K | 48.04
375.61 K | 50.59
377 K | 52.9
378.25 K | 55.02
380.03 K | 58.2
381.34 K | 60.63
382.42 K | 62.68
383.64 K | 65.07
384.76 K | 67.34
386.29 K | 70.52
387.45 K | 73.02
388.55 K | 75.43
389.65 K | 77.94
390.56 K | 80.05
391.6 K | 82.51
392.6 K | 84.94
393.47 K | 87.09
394.37 K | 89.39
395.14 K | 91.38
396.04 K | 93.64
396.95 K | 96.14
397.9 K | 98.73
398.19 K | 99.59
398.59 K | 100.68
398.83 K | 101.32
399.61 K | 103.61
400.53 K | 106.23
401.23 K | 108.3
402.03 K | 110.71
402.81 K | 113.09
403.32 K | 114.65
403.81 K | 116.17
404.1 K | 117.1
404.79 K | 119.25
405.51 K | 121.6
406.27 K | 124.1
407.03 K | 126.61
407.89 K | 129.5
408.75 K | 132.46
409.62 K | 135.53
410.15 K | 137.42
410.83 K | 139.87
422.1 K | 185.56
422.64 K | 188.02
423.26 K | 190.85
423.76 K | 193.15
424.15 K | 195.02
424.76 K | 197.87
425.2 K | 199.97

CCCCC [pentane]
Settings | mass density [kg/m3] | vapor or sublimation pressure [kPa]
291.15 K | 628.22 | –
298.15 K | 621.35 | –
309.3 K | – | 101.32
